In paper PMC11252453 (Acta Pharmaceutica Sinica. B, 2024):

Tests used:
[1] = tested on: SARS-CoV-2 PLpro mediated IFNB expression; assay type: cell-based
Vero E6 cells = details: African green monkey
SARS-CoV-2 PLpro = SARS-CoV-2 PLpro (Severe acute respiratory syndrome coronavirus 2, UniProt P0DTD1); test: cell-based

SMILES	IFNB mRNA expression [1]	CC50 (Vero E6 cells) [µM]	EC50 (SARS-CoV-2 PLpro) [µM]
CCC(C(=O)Nc1cc(NC2CCNCC2)ccc1C)n1cc(Cl)cc2nc(SCc3ccc(F)cc3)nc1-2 (stereo not shown) [Compound 39]	fully restore IFNB expression	> 50	
CCC(C(=O)Nc1cc(NC2CCNCC2)ccc1C)n1cc(Br)cc2nc(SCc3ccc(F)cc3)nc1-2 (stereo not shown) [Compound 44]			3.81 ± 0.59
CCC(C(=O)Nc1cc(NC2COC2)ccc1C)n1cc(Br)cc2nc(SCc3ccc(F)cc3)nc1-2 (stereo not shown) [Compound 45]	fully restore IFNB expression		
